{"source": "patent US7951364B2", "about": "“CaR receptor as a mediator of migratory cell chemotaxis and/or chemokinesis” (The General Hospital Corporation, priority 2000, dated 2011)", "key": {"[1]": {"tested_on": "mononuclear cells derived from neonatal CaR −/−, +/− or +/+ mice", "assay": "Transmigration assay with cells from CaR knockout and wild-type mice", "type": "cell-based, mouse", "settings": "CaR −/− cells", "method": "Transmigration assays. Transwells (5 μm pore size polycarbonate membrane, 12 mm diameter) (Costar, Corning, N.Y.) were used to assess cell migration using an established methodology (25). The concentration of Ca^++ in IMDM (CellGro, Herndon, Va.) in the upper and lower chambers of the transwell were adjusted according to a checkerboard analysis of chemotaxis. Calcium concentrations varied from 0 mM to 6.5 mM. Purified monocytes (1×10^4) were then placed in the top chamber with 150 μl of IMDM (CellGro, Hemdon, Va.). 500 μl of the medium was added to the bottom of the well and supplemented with varying concentrations of Ca^++ or with Ca^++ plus 10 ng/ml of MCP-1, 100 ng/ml of SDF-1α or 10 ng/ml of MIP-1α (PeproTech, Rocky Hills, N.Y.). Cells were incubated at 37° C. for 3 hours. To study inhibition of chemotaxis, cells were subsequently incubated with wortmannin (1 μM for 20 minutes at 37° C.), herbimycin (1 μM for 20 minutes at 37° C.) or genistein (1 μg/ml for 20 minutes at 37° C.), before their use in transmigration assays. At the end of the experiment, cells were then harvested from the lower chamber and counted using a hemocytometer.\nCaR−/− were bred as previously described (Ho, C., et al., Nat Genet 1995, 11:389-94). To produce CaR−/− mice for this study, heterozygote mice were intercrossed. The mice studied were either 129S6/svev or 129S6/svev/Swiss Webster mixed genetic background. […]"}, "CCR-5": {"tested_on": "CCR-5", "settings": "elevated Ca^++", "method": "(§1) Chemokine receptor expression and flow cytometric analysis. Purified monocytes were incubated in a Ca^++-free medium supplemented with 1 mM, 3 mM or 5 mM CaCl2 or with 1.5 mM CaCl2 plus 1 μM NPS R-467 or S-467. Cells were washed once in PBS with 1% FCS and resuspended in 100 μl of Ca^++-free PBS. Monoclonal antibody against the CaR was added to the cells and incubated alone or with the CaR peptide for 30 min at room temperature. Cells were washed with PBS containing 1% FCS, resuspended in PBS with 1% FCS and incubated for 15 min at room temperature with anti-mouse IgG conjugated to FITC. The cells were washed again and conjugated monoclonal antibody [anti-CXCR4, anti-CCR5 (Pharmingen, San Diego, Calif.); anti-CCR2 (R&D, Minneapolis, Minn.); anti-CD14 (Becton Dickinson, San Jose, Calif.); or anti-CD4 (Becton Dickinson, San Jose, Calif.)] was added and incubated for 15 min at room temperature. Stained cells were fixed with 1% paraformaldehyde and assayed within 24 hrs. Flow cytometric analysis was performed using a dual laser FACSCalibur (Becton Dickinson Immunocytometry Systems, San Jose, Calif.) calibrated using 2 μm Calibrite beads (Becton Dickinson). Data acquisition and analysis were performed using CellQuest software (Becton Dickinson)."}, "CD4": {"tested_on": "CD4", "settings": "varying Ca^++ concentration", "method": "as §1"}, "CXCR-4": {"tested_on": "CXCR-4", "settings": "elevated Ca^++", "method": "as §1"}, "human CD34^+ cells": {"tested_on": "human CD34^+ cells", "assay": "In vitro assays of human CD34^+ hematopoietic progenitor cells", "type": "cell-based", "settings": "increased Ca^2+ concentration", "from_the_text": "Calcium ions effect Hematopoietic Progenitor Cells. We also assessed the effects of calcium, through its interaction with the calcium sensing receptor (CaR) using in vitro assays of human CD34^+ cells. […] Therefore, calcium participates in maintaining candidate stem cells in a primitive, undifferentiated state. […] This was accompanied by a decrease in the level of LTC-ICs in the bone marrow, but an increase in the level of CFU-Cs, with a converse increase in hematopoietic stem cells in is the peripheral blood."}}}
{"smiles": "[Ca+2].[Cl-].[Cl-]", "note": "[Ca^++, calcium chloride]", "values": [{"measurement": "Transmigration to the Ca^++ gradient", "setting": "[1]", "result": "failed to transmigrate"}, {"measurement": "CCR-5 median fluorescence intensity", "setting": "CCR-5", "result": "failed to demonstrate any change"}, {"measurement": "Fluorescence intensity of anti-CD4 antibody staining", "setting": "CD4", "result": "did not vary"}, {"measurement": "CXCR-4 expression", "setting": "CXCR-4", "result": "increased but did not achieve statistical significance"}, {"measurement": "Number of more mature BFU-Es", "setting": "human CD34^+ cells; p=0.017", "result": "decrease"}, {"measurement": "Level of primitive cells measured by LTC-ICs", "setting": "human CD34^+ cells; p=0.037", "result": "increase"}]}
